According to ChEMBL document CHEMBL1201862, “PubChem BioAssay data set” (2004):
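A five-concentration, 48-hour dose response in 96-well plates underlies each endpoint, interpolated linearly between surrounding concentrations. GI50 = concentration required for 50% inhibition of growth.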 The source made the active and inactive calls. Rule as the data show it: active = GI50 up to about 1.1 µM and inactive = higher.

Columns and labels:
Test in all cases: growth of human tumour cells (NCI), 48 h
[1] = system: ACHN
[2] = system: CAKI-1
[3] = system: HCT-116
[4] = system: M14
[5] = system: MDA-MB-231
[6] = system: MDA-N
[7] = system: Malme-3M
[8] = system: NCI-H460
[9] = system: NCI-H522
[10] = system: OVCAR-4
[11] = system: OVCAR-5
[12] = system: SF-295
[13] = system: SK-MEL-2
[14] = system: SK-MEL-5
[15] = system: SNB-19
[16] = system: SW-620
[17] = system: UO-31
[18] = system: K562
[19] = system: MOLT-4
[20] = system: HL-60

| SMILES | GI50 [1] | GI50 [2] | GI50 [3] | GI50 [4] | GI50 [5] | GI50 [6] | GI50 [7] | GI50 [8] | GI50 [9] | GI50 [10] | GI50 [11] | GI50 [12] | GI50 [13] | GI50 [14] | GI50 [15] | GI50 [16] | GI50 [17] | GI50 [18] | GI50 [19] | GI50 [20] |
| --- | --- | --- | --- | --- | --- | --- | --- | --- | --- | --- | --- | --- | --- | --- | --- | --- | --- | --- | --- | --- |
| COc1ccc(/C=C/c2cnccn2)cc1OC | > 10 µM (inactive) | > 10 µM (inactive) | > 10 µM (inactive) | > 10 µM (inactive) | > 10 µM (inactive) | > 10 µM (inactive) | > 10 µM (inactive) | > 10 µM (inactive) | > 10 µM (inactive) | > 10 µM (inactive) | > 10 µM (inactive) | > 10 µM (inactive) | > 10 µM (inactive) | > 10 µM (inactive) | > 10 µM (inactive) | > 10 µM (inactive) | > 10 µM (inactive) |  |  |  |
| COC(OC)[C@@H]1OC[C@@H](O)[C@@H]1n1cnc2c(N)ncnc21 | > 100 µM (inactive) | > 100 µM (inactive) | > 100 µM (inactive) | > 100 µM (inactive) | > 100 µM (inactive) | > 100 µM (inactive) | > 100 µM (inactive) | > 100 µM (inactive) | > 100 µM (inactive) | > 100 µM (inactive) | > 100 µM (inactive) | > 100 µM (inactive) | > 100 µM (inactive) | > 100 µM (inactive) |  | > 100 µM (inactive) | > 100 µM (inactive) | > 100 µM (inactive) | > 100 µM (inactive) |  |
| CCOC(=O)/C=C(/C(=O)OCC)n1ccc(=O)n(Cc2cnnn2CCCCOC(C)=O)c1=O | 51.2 µM (inactive) | 30.2 µM (inactive) | > 100 µM (inactive) |  | > 100 µM (inactive) | > 100 µM (inactive) |  | > 100 µM (inactive) | 20.7 µM (inactive) | > 100 µM (inactive) | > 100 µM (inactive) | > 100 µM (inactive) | > 100 µM (inactive) | > 100 µM (inactive) | > 100 µM (inactive) | 20.1 µM (inactive) | > 100 µM (inactive) | 70.1 µM (inactive) | 20.4 µM (inactive) |  |
| O=c1[nH]c(=O)n([C@@H]2O[C@H](CO)[C@@H](O)[C@H]2O)cc1F [5-FLUOROURIDINE] | 0.0307 µM (active) | 0.0483 µM (active) | 0.0167 µM (active) | 0.222 µM (active) | 1.63 µM (inactive) | 0.025 µM (active) | 0.0678 µM (active) | 0.0159 µM (active) |  | 0.521 µM (active) | 0.718 µM (active) | 0.145 µM (active) | 2.32 µM (inactive) | 0.344 µM (active) | 0.0579 µM (active) | 0.0222 µM (active) | 0.0792 µM (active) | 0.0212 µM (active) | 0.0861 µM (active) | 0.0867 µM (active) |
| Cc1cnc2nc(-c3sccc3C)cc(O)c2c1 | 8.85 µM (inactive) | 6.47 µM (inactive) | 3.33 µM (inactive) | 2.25 µM (inactive) | 18.1 µM (inactive) | 0.361 µM (active) | 1.37 µM (inactive) | 2.99 µM (inactive) | 1.12 µM (active) | > 100 µM (inactive) | > 24 µM (inactive) | 2.26 µM (inactive) | 3.4 µM (inactive) | 1.23 µM (inactive) | 2.85 µM (inactive) | 1.91 µM (inactive) | 6.25 µM (inactive) | 5.04 µM (inactive) | 6.18 µM (inactive) |  |
| COC(=O)C(COC(=O)/C=C/c1ccc(OC(C)=O)c(OC(C)=O)c1)OC(=O)/C=C/c1ccc(OC(C)=O)c(OC(C)=O)c1 (stereo not drawn) | 14.5 µM (inactive) | 6.87 µM (inactive) | 4.14 µM (inactive) | 7.8 µM (inactive) | 6.7 µM (inactive) | 9.73 µM (inactive) | 15.5 µM (inactive) | 18.7 µM (inactive) | 5.18 µM (inactive) | 15.3 µM (inactive) | 13 µM (inactive) | 14.3 µM (inactive) | 12.2 µM (inactive) | 14.8 µM (inactive) | 8.32 µM (inactive) | 6.27 µM (inactive) | 10 µM (inactive) | 3.48 µM (inactive) | 1.95 µM (inactive) |  |
| Cc1cc(C)n(C(=O)CSc2nnc(SCC(=O)n3nc(C)cc3C)s2)n1 | > 100 µM (inactive) | > 100 µM (inactive) | > 100 µM (inactive) | > 100 µM (inactive) | > 100 µM (inactive) | > 100 µM (inactive) |  | > 100 µM (inactive) |  | > 100 µM (inactive) | > 100 µM (inactive) | > 100 µM (inactive) |  | > 100 µM (inactive) | > 100 µM (inactive) | > 100 µM (inactive) | > 100 µM (inactive) | > 100 µM (inactive) | > 100 µM (inactive) | > 100 µM (inactive) |
| CC(=O)OCCCCn1cnc2nc(Nc3ccccc3)nc(Cl)c21 | 60.7 µM (inactive) | 14 µM (inactive) | 72.4 µM (inactive) | 59.6 µM (inactive) | 35.2 µM (inactive) | 31.2 µM (inactive) | 83.4 µM (inactive) | > 100 µM (inactive) |  | 65.3 µM (inactive) |  | 57.1 µM (inactive) | > 100 µM (inactive) | 42.2 µM (inactive) | > 100 µM (inactive) | > 100 µM (inactive) | 40.6 µM (inactive) | 99.1 µM (inactive) | 66.5 µM (inactive) | > 100 µM (inactive) |
| NC(=O)NNC(=O)c1nc[nH]c1[N+](=O)[O-] |  | > 100 µM (inactive) | > 100 µM (inactive) | > 100 µM (inactive) | > 100 µM (inactive) | > 100 µM (inactive) | > 100 µM (inactive) | > 100 µM (inactive) | > 100 µM (inactive) | > 100 µM (inactive) | > 100 µM (inactive) |  | > 100 µM (inactive) | > 100 µM (inactive) |  | > 100 µM (inactive) | > 100 µM (inactive) | > 100 µM (inactive) | > 100 µM (inactive) |  |
| CCOC(=O)c1c2ccccc2n2c(=O)n(-c3ccccc3)nnc12 | > 27 µM (inactive) | > 91.4 µM (inactive) | 73.8 µM (inactive) | 59 µM (inactive) | > 100 µM (inactive) | > 42.4 µM (inactive) | > 100 µM (inactive) | 30.7 µM (inactive) |  | > 71.8 µM (inactive) | > 100 µM (inactive) | 3.25 µM (inactive) | > 25.8 µM (inactive) | 15.7 µM (inactive) | > 100 µM (inactive) | > 100 µM (inactive) | 74.8 µM (inactive) | 16.6 µM (inactive) |  | 23.8 µM (inactive) |
| COC(=O)C1=C(C(=O)OC)C2OC1C1C2C2(C)C(C)=C(C)C1(C)[S+]2[O-] (stereo not drawn) | 2.83 µM (inactive) | 4.93 µM (inactive) | 6.08 µM (inactive) | 8.59 µM (inactive) | 22.5 µM (inactive) | 11.3 µM (inactive) | 6.98 µM (inactive) | 15.9 µM (inactive) | 2.14 µM (inactive) | 12.1 µM (inactive) | 15.5 µM (inactive) | 28.4 µM (inactive) | 10.8 µM (inactive) | 7.62 µM (inactive) | 30.3 µM (inactive) | 4.14 µM (inactive) | 4.21 µM (inactive) | 4.9 µM (inactive) | 2.02 µM (inactive) |  |
| Cc1nc2c(O)cc3c4c(n(Cc5ccccc5)c3c2nc1C)C(=O)CCC4 | 25.2 µM (inactive) |  | 34.4 µM (inactive) | 53.2 µM (inactive) | > 100 µM (inactive) | 45.9 µM (inactive) | 27.8 µM (inactive) | 83 µM (inactive) |  | 13.9 µM (inactive) | > 100 µM (inactive) | 34 µM (inactive) | 10.1 µM (inactive) | 25.5 µM (inactive) | 23.3 µM (inactive) | > 100 µM (inactive) | 56 µM (inactive) | 93.5 µM (inactive) | > 100 µM (inactive) | > 100 µM (inactive) |
| COc1ccccc1/C=C/c1nc2ccccc2o1 | > 10 µM (inactive) | > 10 µM (inactive) | > 10 µM (inactive) | > 10 µM (inactive) | > 10 µM (inactive) | > 10 µM (inactive) | > 10 µM (inactive) | > 10 µM (inactive) | > 10 µM (inactive) | > 10 µM (inactive) | > 10 µM (inactive) | > 10 µM (inactive) | > 10 µM (inactive) | > 10 µM (inactive) | > 10 µM (inactive) | > 10 µM (inactive) |  | > 10 µM (inactive) | > 10 µM (inactive) |  |
| C(#Cc1ccccc1)SC1=C(c2ccccc2)S/C(=C(\SC#Cc2ccccc2)c2ccccc2)S1 | > 100 µM (inactive) | > 100 µM (inactive) | > 100 µM (inactive) | > 100 µM (inactive) | > 100 µM (inactive) | > 100 µM (inactive) |  | > 100 µM (inactive) | > 100 µM (inactive) | > 100 µM (inactive) | > 100 µM (inactive) | > 100 µM (inactive) |  | > 100 µM (inactive) | > 100 µM (inactive) | > 100 µM (inactive) | > 100 µM (inactive) | > 100 µM (inactive) | > 100 µM (inactive) |  |
| C=CCC1(c2ccc(OC)cc2)C=CC(=O)CC1 (stereo not drawn) | > 100 µM (inactive) | > 100 µM (inactive) | > 100 µM (inactive) | > 100 µM (inactive) | 92.7 µM (inactive) | 65.8 µM (inactive) |  | > 100 µM (inactive) | 77.1 µM (inactive) | > 100 µM (inactive) | > 100 µM (inactive) | > 100 µM (inactive) |  | > 100 µM (inactive) | > 100 µM (inactive) | > 100 µM (inactive) | > 100 µM (inactive) | 40.2 µM (inactive) | 28.6 µM (inactive) | 38.9 µM (inactive) |
